Assay results: patent publication US8828907B2, “Active ingredient combinations having insecticidal and acaricidal properties” (Bayer CropScience AG, priority 2009, dated 2014)

Experiments:
Assay type in all cases: in vivo
Conditions in all cases: single active compound
[1] = system: green peach aphid (Myzus persicae); assay: Myzus persicae test (spray on infested cabbage leaves)
Experimental: (§1) Solvents: 78 parts by weight of acetone • • 1.5 parts by weight of dimethylformamide
(§2) Emulsifier: 0.5 part by weight of alkylaryl polyglycol ether
(§3) To produce a suitable preparation of active compound, 1 part by weight of active compound is mixed with the stated amount of solvent and emulsifier, and the concentrate is diluted with emulsifier-containing water to the desired concentration.
Cabbage leaves (Brassica oleracea) which are heavily infested by the green peach aphid (Myzus persicae) are treated by spraying with the active compound preparation of the desired concentration.
After the desired period of time, the kill in % is determined. 100% means that all of the aphids have been killed; 0% means that none of the aphids have been killed. The kill rates determined are entered into Colby's formula (see above).

[2] = system: larvae of the mustard beetle (Phaedon cochleariae); assay: Phaedon cochleariae larvae test (sprayed cabbage leaves)
Experimental: as §1, §2, §3
Cabbage leaves (Brassica oleracea) are treated by spraying with the active ingredient formulation of the desired concentration and populated with larvae of the mustard beetle (Phaedon cochleariae) while the leaves are still moist.
After the desired period of time, the kill in % is determined. 100% means that all beetle larvae have been killed; 0% means that none of the beetle larvae have been killed. The kill rates determined are entered into Colby's formula (see above).

[3] = system: larvae of the armyworm (Spodoptera frugiperda); assay: Spodoptera frugiperda larvae test (sprayed cabbage leaves)
Experimental: as §1, §2, §3
Cabbage leaves (Brassica oleracea) are treated by being sprayed with the preparation of active compound of the desired concentration and are populated with larvae of the armyworm (Spodoptera frugiperda) while the leaves are still moist.
After the desired period of time, the kill in % is determined. 100% means that all caterpillars have been killed; 0% means that none of the caterpillars have been killed. The kill rates determined are entered into Colby's formula (see above).

[4] = system: greenhouse red spider mite (Tetranychus urticae); assay: Tetranychus urticae test (OP-resistant/spray treatment)
Experimental: as §1, §2, §3
Discs of bean leaves (Phaseolus vulgaris) which are infested by all stages of the greenhouse red spider mite (Tetranychus urticae) are sprayed with an active compound preparation of the desired concentration.
After the desired period of time, the effect in % is determined. 100% means that all of the spider mites have been killed; 0% means that none of the spider mites have been killed.

Row | Structure (SMILES) | Kill in % after 1d ([1]; 4 g/ha) | Kill in % after 2d ([2]; 4 g/ha) | Kill in % after 2d ([2]; 100 g/ha) | Kill in % after 2d ([3]; 0.16 g/ha) | Kill in % after 2d ([3]; 0.8 g/ha) | Kill in % after 2d ([3]; 20 g/ha) | Kill in % after 6d ([4]; 20 g/ha) | Kill in % after 2d ([3]; 4 g/ha) | Kill in % after 6d ([4]; 100 g/ha) | Kill in % after 1d ([1]; 0.8 g/ha)
1 | O=C1C=C(N(CCF)Cc2ccc(Cl)nc2)CO1 [compound (I-4), 4-{[(6-chloropyrid-3-yl)methyl](2-fluoroethyl)amino}furan-2(5H)-one] | 30% | 0% | 0% | 0% | 0% | 0% | 0% |  |  | 
2 | O=C1C=C(N(Cc2ccc(Cl)nc2)CC(F)F)CO1 [compound (I-5), 4-{[(6-chloropyrid-3-yl)methyl](2,2-difluoroethyl)amino}furan-2(5H)-one] |  | 0% | 0% |  | 0% |  | 0% | 0% | 0% | 
3 | CN(Cc1cnc(Cl)c(F)c1)C1=CC(=O)OC1 [compound (I-6), 4-{[(6-chloro-5-fluorpyrid-3-yl)methyl](methyl)amino}furan-2(5H)-one] |  |  | 0% |  | 0% | 0% |  |  |  | 70%
4 | O=C(NC(=O)c1c(F)cccc1F)Nc1ccc(Oc2ccc(C(F)(F)F)cc2Cl)cc1F [flufenoxuron, reference compound] | 0% |  | 0% |  | 33% |  | 0% |  |  | 0%
5 | O=C(NC(=O)c1c(F)cccc1F)Nc1cc(Cl)c(OC(F)(F)C(F)C(F)(F)F)cc1Cl (stereo not drawn) [lufenuron, reference compound] | 0% |  | 17% |  |  |  |  |  |  | 
6 | COc1cccc(C(=O)NN(C(=O)c2cc(C)cc(C)c2)C(C)(C)C)c1C [methoxyfenozide, reference compound] | 0% |  |  |  |  | 83% |  | 33% | 0% | 
7 | O=C(NC(=O)c1ccccc1Cl)Nc1ccc(OC(F)(F)F)cc1 [triflumuron, reference compound] | 0% | 0% |  | 50% | 33% |  |  |  |  | 0%
